This passage reports Kd results from BindingDB's records for doi:10.1021/jm0104062 (Louis Pasteur University, 2002).

The test deals with P2Y purinoceptor 1 (Homo sapiens, UniProt P47900). Briefly: pA2 value was evaluated against P2Y purinoceptor 1.
Chain of P2Y purinoceptor 1 (P47900 whole entry): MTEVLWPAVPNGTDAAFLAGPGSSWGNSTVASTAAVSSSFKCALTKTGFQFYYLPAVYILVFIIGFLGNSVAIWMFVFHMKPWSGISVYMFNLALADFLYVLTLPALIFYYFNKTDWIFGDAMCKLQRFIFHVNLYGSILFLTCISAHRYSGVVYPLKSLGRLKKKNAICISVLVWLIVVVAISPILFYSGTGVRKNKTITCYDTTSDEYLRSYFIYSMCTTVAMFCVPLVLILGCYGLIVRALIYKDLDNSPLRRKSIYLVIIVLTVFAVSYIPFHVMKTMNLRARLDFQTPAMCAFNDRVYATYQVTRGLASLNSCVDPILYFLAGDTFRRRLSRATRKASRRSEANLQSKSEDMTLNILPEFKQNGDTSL

In the case of `CNc1nc(C)nc2c1ncn2C1CC(OP(=O)(O)O)C(COP(=O)(O)O)O1` (stereo unspecified), the Kd turned out to be 77.6 nM.
